Laboratory results published in patent US12479830B2, “Homopiperazinyl and homopiperidinyl quinazolin-4(3H)-one derivatives having multimodal activity against pain” (ESTEVE PHARMACEUTICALS, S.A., priority 2019, dated 2025).

Legend:
[1] = target: T1, Human σ1 receptor (Homo sapiens, UniProt Q99720); assay: Human σ1 receptor radioligand assay ([3H](+)-pentazocine binding); details: binding to the σ1 receptor, expressed as Ki class; + also covers inhibition between 1% and 50%
T1 construct: expressed in transfected cells; host or cells: HEK-293
T1 sequence (Q99720 whole entry): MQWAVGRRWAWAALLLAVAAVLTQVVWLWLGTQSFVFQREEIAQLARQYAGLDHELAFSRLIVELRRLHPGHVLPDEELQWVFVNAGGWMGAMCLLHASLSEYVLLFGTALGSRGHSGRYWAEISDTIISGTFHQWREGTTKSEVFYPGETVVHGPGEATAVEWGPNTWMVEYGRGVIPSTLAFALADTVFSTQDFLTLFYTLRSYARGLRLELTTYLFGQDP
Method: Human σ1 Receptor Radioligand Assay
Transfected HEK-293 membranes (7 μg) were incubated with 5 nM of [^3H](+)-pentazocine in assay buffer containing Tris-HCl 50 mM at pH 8. NBS (non-specific binding) was measured by adding 10 μM haloperidol. The binding of the test compound was measured at either one concentration (% inhibition at 1 or 10 μM) or five different concentrations to determine affinity values (Ki). Plates were incubated at 37° C. for 120 minutes. After the incubation period, the reaction mix was then transferred to MultiScreen HTS, FC plates (Millipore), filtered and plates were washed 3 times with ice-cold 10 mM Tris-HCL (pH7.4). Filters were dried and counted at approximately 40% efficiency in a MicroBeta scintillation counter (Perkin-Elmer) using EcoScint liquid scintillation cocktail.

[2] = target: Human α2δ-1 subunit of Cav2.2 calcium channel (Homo sapiens, UniProt P54289); assay: Human α2δ-1 subunit of Cav2.2 calcium channel assay ([3H]-gabapentin binding); details: binding to the α2δ-1 subunit of voltage-gated calcium channels, expressed as Ki class; + also covers inhibition between 1% and 50%
Sequence of Human α2δ-1 subunit of Cav2.2 calcium channel (P54289 25-1103): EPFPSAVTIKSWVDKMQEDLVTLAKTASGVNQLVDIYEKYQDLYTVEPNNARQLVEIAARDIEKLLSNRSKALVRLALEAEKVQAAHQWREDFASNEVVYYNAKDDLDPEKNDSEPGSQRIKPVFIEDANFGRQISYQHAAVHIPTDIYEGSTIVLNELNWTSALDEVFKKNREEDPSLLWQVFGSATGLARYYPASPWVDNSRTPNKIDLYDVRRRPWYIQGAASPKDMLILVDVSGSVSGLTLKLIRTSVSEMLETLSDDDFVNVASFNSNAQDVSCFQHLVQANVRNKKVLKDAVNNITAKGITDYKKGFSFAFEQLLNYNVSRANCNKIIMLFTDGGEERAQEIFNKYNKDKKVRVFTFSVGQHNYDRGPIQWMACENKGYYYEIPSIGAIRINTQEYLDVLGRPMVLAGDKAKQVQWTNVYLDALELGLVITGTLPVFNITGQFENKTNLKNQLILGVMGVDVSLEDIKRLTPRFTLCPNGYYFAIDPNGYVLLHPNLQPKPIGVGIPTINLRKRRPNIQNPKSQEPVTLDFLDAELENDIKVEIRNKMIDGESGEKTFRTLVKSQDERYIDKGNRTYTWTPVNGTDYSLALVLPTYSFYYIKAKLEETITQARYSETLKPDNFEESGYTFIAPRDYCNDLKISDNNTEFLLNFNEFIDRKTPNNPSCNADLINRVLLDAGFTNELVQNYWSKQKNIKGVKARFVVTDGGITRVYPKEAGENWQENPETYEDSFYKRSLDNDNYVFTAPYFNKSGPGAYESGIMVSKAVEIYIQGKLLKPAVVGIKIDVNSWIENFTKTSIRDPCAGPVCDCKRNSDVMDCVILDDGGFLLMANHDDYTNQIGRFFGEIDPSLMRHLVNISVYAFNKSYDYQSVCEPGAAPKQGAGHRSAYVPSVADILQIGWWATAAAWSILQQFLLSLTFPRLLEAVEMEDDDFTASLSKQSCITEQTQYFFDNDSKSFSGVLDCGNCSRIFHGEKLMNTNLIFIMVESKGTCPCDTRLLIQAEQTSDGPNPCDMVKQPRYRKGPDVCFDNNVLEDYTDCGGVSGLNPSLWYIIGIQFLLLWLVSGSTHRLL
Method: Human α2δ-1 Subunit of Cav2.2 Calcium Channel Assay
Human α2δ-1 enriched membranes (2.5 μg) were incubated with 15 nM of radiolabeled [^3H]-Gabapentin in assay buffer containing Hepes-KOH 10 mM. pH 7.4. NSB (non specific binding) was measured by adding 10 μM pregabalin. The binding of the test compound was measured at either one concentration (% inhibition at 1 or 10 μM) or five different concentrations to determine affinity values (Ki). After 60 min incubation at 27° C., binding reaction was terminated by filtering through Multiscreen GF/C (Millipore) presoaked in 0.5% polyethyleneimine in Vacuum Manifold Station, followed by 3 washes with ice-cold filtration buffer containing 50 mM Tris-HCl, pH 7.4. Filter plates were dried at 60° C. for 1 h and 30 μL of scintillation cocktail were added to each well before radioactivity reading. Readings were performed in a Trilux 1450 Microbeta radioactive counter (Perkin Elmer).

Ki [1] [nM]	Ki [2] [nM]	SMILES
> 1000	< 500	CCC[C@H](c1nc2ccc(OC)cc2c(=O)n1CC)N1CCCN(C)CC1 [Example 15, (R)-3-ethyl-6-methoxy-2-(1-(4-methyl-1,4-diazepan-1-yl)butyl)quinazolin-4(3H)-one]
> 1000	> 5000	CCC[C@@H](c1nc2ccc(OC)cc2c(=O)n1CC)N1CCCN(C)CC1 [Example 16, (S)-3-ethyl-6-methoxy-2-(1-(4-methyl-1,4-diazepan-1-yl)butyl)quinazolin-4(3H)-one]
> 1000	< 500	CCCC(c1nc2cnccc2c(=O)n1CC)N1CCCN(C)CC1 (centres unmarked) [Example 17, 3-ethyl-2-(1-(4-methyl-1,4-diazepan-1-yl)butyl)pyrido[3,4-d]pyrimidin-4(3H)-one]
< 500	< 500	CCCC(c1nc2ccc(Br)cc2c(=O)n1CCC)N1CCCN(C)CC1 (centres unmarked) [Example 18, 6-bromo-2-(1-(4-methyl-1,4-diazepan-1-yl)butyl)-3-propylquinazolin-4(3H)-one]
500 to 1000	< 500	CCCC(c1nc2ccc(Cl)cc2c(=O)n1CC)N1CCCN(C)CC1 (centres unmarked) [Example 19, 6-chloro-3-ethyl-2-(1-(4-methyl-1,4-diazepan-1-yl)butyl)quinazolin-4(3H)-one]
< 500	< 500	CCCC(c1nc2ccc(Br)cc2c(=O)n1CCC)N1CCCN(CC)CC1 (centres unmarked) [Example 20, 6-bromo-2-(1-(4-ethyl-1,4-diazepan-1-yl)butyl)-3-propylquinazolin-4(3H)-one]
< 500	< 500	CCCC(c1nc2ccc(F)cc2c(=O)n1CC)N1CCCN(C)CC1 (centres unmarked) [Example 21, 3-ethyl-6-fluoro-2-(1-(4-methyl-1,4-diazepan-1-yl)butyl)quinazolin-4(3H)-one]
> 1000	< 500	CCCC(c1nc2ccc(Cl)cc2c(=O)n1CC)N1CCCNCC1 (centres unmarked) [Example 22, 2-(1-(1,4-diazepan-1-yl)butyl)-6-chloro-3-ethylquinazolin-4(3H)-one]
500 to 1000	< 500	CCCC(c1nc2ccc(Cl)cc2c(=O)n1CCC)N1CCCN(C)CC1 (centres unmarked) [Example 23, 6-chloro-2-(1-(4-methyl-1,4-diazepan-1-yl)butyl)-3-propylquinazolin-4(3H)-one]
< 500	500 to 5000	CCCC(c1nc2ccc(Br)c(C)c2c(=O)n1CC)N1CCCN(C)CC1 (centres unmarked) [Example 24, 6-bromo-3-ethyl-5-methyl-2-(1-(4-methyl-1,4-diazepan-1-yl)butyl)quinazolin-4(3H)-one]
500 to 1000	> 5000	CCCC(c1nc2c(C)cc(Br)cc2c(=O)n1CC)N1CCCN(C)CC1 (centres unmarked) [Example 25, 6-bromo-3-ethyl-8-methyl-2-(1-(4-methyl-1,4-diazepan-1-yl)butyl)quinazolin-4(3H)-one]
< 500	< 500	CCCC(c1nc2cc(F)c(Br)cc2c(=O)n1CCC)N1CCCN(C)CC1 (centres unmarked) [Example 26, 6-bromo-7-fluoro-2-(1-(4-methyl-1,4-diazepan-1-yl)butyl)-3-propylquinazolin-4(3H)-one]
> 1000	< 500	CCCC(c1nc2cc(F)c(Br)cc2c(=O)n1CC)N1CCCNCC1 (centres unmarked) [Example 27, 2-(1-(1,4-diazepan-1-yl)butyl)-6-bromo-3-ethyl-7-fluoroquinazolin-4(3H)-one]
500 to 1000	500 to 5000	CCCC(c1nc2ccc(Br)cc2c(=O)n1CC)N1CCNCC(C)(C)C1 (centres unmarked) [Example 28, 6-bromo-2-(1-(6,6-dimethyl-1,4-diazepan-1-yl)butyl)-3-ethylquinazolin-4(3H)-one]
500 to 1000	< 500	CCCC(c1nc2cc(F)c(F)cc2c(=O)n1CC)N1CCCN(C)CC1 (centres unmarked) [Example 29, 3-ethyl-6,7-difluoro-2-(1-(4-methyl-1,4-diazepan-1-yl)butyl)quinazolin-4(3H)-one]
> 1000	> 5000	CCCC(c1nc2ccc(Br)cc2c(=O)n1CC)N1CCN(C)CC(C)(C)C1 (centres unmarked) [Example 30, 6-bromo-3-ethyl-2-(1-(4,6,6-trimethyl-1,4-diazepan-1-yl)butyl)quinazolin-4(3H)-one]
500 to 1000	< 500	CCCC(c1nc2cc(Br)c(F)cc2c(=O)n1CCC)N1CCCN(C)CC1 (centres unmarked) [Example 31, 7-bromo-6-fluoro-2-(1-(4-methyl-1,4-diazepan-1-yl)butyl)-3-propylquinazolin-4(3H)-one]
< 500	< 500	CCCC(c1nc2cc(Br)c(F)cc2c(=O)n1CC)N1CCCN(C)CC1 (centres unmarked) [Example 33, 7-bromo-3-ethyl-6-fluoro-2-(1-(4-methyl-1,4-diazepan-1-yl)butyl)quinazolin-4(3H)-one]
> 1000	< 500	CCCC(c1nc2cc(F)c(Br)cc2c(=O)n1CCC)N1CCCNCC1 (centres unmarked) [Example 34, 2-(1-(1,4-diazepan-1-yl)butyl)-6-bromo-7-fluoro-3-propylquinazolin-4(3H)-one]
> 1000	< 500	CCC[C@H](c1nc2ccc(Br)cc2c(=O)n1CC)N1CCN(C)C[C@@H](C)C1 [Example 35, 6-bromo-2-((R)-1-((R)-4,6-dimethyl-1,4-diazepan-1-yl)butyl)-3-ethylquinazolin-4(3H)-one]
500 to 1000	< 500	CCC[C@H](c1nc2ccc(Br)cc2c(=O)n1CC)N1CCN(C)C[C@H](C)C1 [Example 36, 6-bromo-2-((R)-1-((S)-4,6-dimethyl-1,4-diazepan-1-yl)butyl)-3-ethylquinazolin-4(3H)-one]
> 1000	> 5000	CCC[C@@H](c1nc2ccc(Br)cc2c(=O)n1CC)N1CCN(C)C[C@H](C)C1 [Example 37, 6-bromo-2-((S)-1-((S)-4,6-dimethyl-1,4-diazepan-1-yl)butyl)-3-ethylquinazolin-4(3H)-one]
> 1000	> 5000	CCC[C@@H](c1nc2ccc(Br)cc2c(=O)n1CC)N1CCN(C)C[C@@H](C)C1 [Example 38, 6-bromo-2-((S)-1-((R)-4,6-dimethyl-1,4-diazepan-1-yl)butyl)-3-ethylquinazolin-4(3H)-one]
500 to 1000	< 500	CCCC(c1nc2cc(C)c(Br)cc2c(=O)n1CC)N1CCCN(C)CC1 (centres unmarked) [Example 39, 6-bromo-3-ethyl-7-methyl-2-(1-(4-methyl-1,4-diazepan-1-yl)butyl)quinazolin-4(3H)-one]
500 to 1000	< 500	CCCC(c1nc2c(F)cc(Br)cc2c(=O)n1CC)N1CCCN(C)CC1 (centres unmarked) [Example 40, 6-bromo-3-ethyl-8-fluoro-2-(1-(4-methyl-1,4-diazepan-1-yl)butyl)quinazolin-4(3H)-one]
> 1000	> 5000	CCCC(c1nc2ccc(Br)c(C)c2c(=O)n1CC)N1CCCNCC1 (centres unmarked) [Example 41, 2-(1-(1,4-diazepan-1-yl)butyl)-6-bromo-3-ethyl-5-methylquinazolin-4(3H)-one]
> 1000	> 5000	CCCC(c1nc2ccc(Br)cc2c(=O)n1CC)N1CCN(C)CC(F)(F)C1 (centres unmarked) [Example 42, 6-bromo-2-(1-(6,6-difluoro-4-methyl-1,4-diazepan-1-yl)butyl)-3-ethylquinazolin-4(3H)-one]
< 500	< 500	CCCC(c1nc2ccc(F)cc2c(=O)n1CC(C)C)N1CCCN(C)CC1 (centres unmarked) [Example 43, 6-fluoro-3-isobutyl-2-(1-(4-methyl-1,4-diazepan-1-yl)butyl)quinazolin-4(3H)-one]
